Converted amounts (≈) assume the structure as drawn.
Key:
[1] = system: phosphorylated ERK1/2 (pERK); assay: in vitro pERK inhibition in DETROIT-562 cells; format: cell-based; settings: Homo sapiens
Source text: (§1) SHP2 inhibition can be measured by assessing biomarkers within the MAPK signaling pathway, such as decreased levels of phosphorylated ERK1/2 (pERK) and downregulation of dual specificity phosphatase 6 (DUSP6) mRNA transcript.

[2] = system: KYSE-520 (esophageal squamous cell carcinoma); assay: antiproliferation in KYSE-520 cells; format: cell-based; settings: Homo sapiens
[3] = system: DETROIT-562 (pharyngeal squamous cell carcinoma); assay: antiproliferation in DETROIT-562 cells; format: cell-based; settings: Homo sapiens
[4] = system: tumor DUSP6 biomarker; assay: dose fractionation studies with tumor DUSP6 biomarker; format: in vivo; settings: attained for at least 80% of the dosing interval
Source text: as §1

[5] = system: Cyclin D1, phospho-RB in HCC827 cells; assay: immunoblot of signalling proteins in HCC827 cells; format: cell-based; settings: HCC827, 48 hours treatment, TNO155 together with ribociclib (FIG. 2)
Description: HCC827 cells were plated in 6-well plates at a density of 2×10^5 cells/well in 2 ml of complete culture medium. […] 48 hours after the treatment, cells were harvested in freshly prepared RIPA cell lysis buffer supplemented with Protease and Phosphatase Inhibitor Cocktail. Proteins extracted from cell lysates were separated by electrophoresis using a NuPAGE 4-12% Bis-Tis gel and were transferred to nitrocellulose membranes, followed by standard immunobloting procedures. The primary antibodies used were all from Cell Signaling Technology with the following catalog numbers: phospho-RB (S807/811, #8516), Cyclin D1 (#2978), cleaved PARP (#9546), phospho-ERK (T202/Y204, #4370), phospho-RSK3 (T356/S360, #9348), phospho-AKT (S473, #4060) and Tubulin (#3873). The signals were visualized by simantanous incubation with goat anti-rabbit secondary antibodies conjugated with Alexa Fluor® 700 and the goat anti-mouse secondary antibody conjugated with IRDye 800 CW for Tubulin (protein loading control) and scanning with an Odyssey Infrared Imager System.

[6] = system: pRb-positive cell lines derived from diverse cancer types; assay: pRb phosphorylation and cell cycle in pRb-positive cell lines; format: cell-based; settings: more than 40 pRb-positive cell lines
[7] = system: lineage-matched pRb-negative cell lines; assay: cell cycle progression in pRb-negative cell lines; format: cell-based
[8] = tolerability in mice; format: in vivo
[9] = tolerability in rats; format: in vivo
[10] = system: tumor xenograft models; assay: in vivo anti-tumor activity in tumor xenograft models; settings: subsets of xenograft models incl. breast, melanoma, neuroblastoma, malignant rhabdoid, lung, pancreas, hematological malignancies
[11] = up to 28 days, up to 250 mg/kg once daily orally
[12] = up to 28 days, up to 150 mg/kg once daily orally

Structure (SMILES)	IC50 [1] [µg/mL]	IC50 [2] [µg/mL]	IC50 [3] [µg/mL]	PD inhibition at which maximal efficacy is achieved [4] [%]	ribociclib-induced cyclin D1 accumulation [5]	G1 to S phase cell cycle progression [6]	Retinoblastoma protein (pRb) phosphorylation [6]	effect on cell cycle progression [7]	myelosuppression ([8]; correlated with pRb inhibition)	body weight loss [8, 11] [%]	tolerability [8, 11]	myelosuppression ([9]; correlated with pRb inhibition)	body weight loss [9, 12] [%]	tolerability [9, 12]	in vivo anti-tumor activity [10]
C[C@@H]1OCC2(CCN(c3cnc(Sc4ccnc(N)c4Cl)c(N)n3)CC2)[C@@H]1N [TNO155, (3S,4S)-8-(6-amino-5-((2-amino-3-chloropyridin-4-yl)thio)pyrazin-2-yl)-3-methyl-2-oxa-8-azaspiro[4.5]decan-4-amine]	0.0148 (≈ 0.0351 µM)	0.0422 (≈ 0.1 µM)	0.198 (≈ 0.47 µM)	50	prevention of ribociclib-induced cyclin D1 accumulation	–	–	–	–	–	–	–	–	–	–
CN(C)C(=O)c1cc2cnc(Nc3ccc(N4CCNCC4)cn3)nc2n1C1CCCC1 [ribociclib, 7-cyclopentyl-N,N-dimethyl-2-((5-(piperazin-1-yl)pyridin-2-yl)amino)-7H-pyrrolo[2,3-d]pyrimidine-6-carboxamide]	–	–	–	–	–	interfered	inhibited	no effect	myelosuppression was observed	≤ 12.5	well-tolerated	myelosuppression was observed	≤ 12.5	well-tolerated	demonstrated in vivo anti-tumor activity
